Among the data in patent US12522583B2, “Benzimidazole derivatives and aza-benzimidazole derivatives as Janus kinase 2 inhibitors and uses thereof” (Dana-Farber Cancer Institute, Inc., priority 2018, dated 2026) are IC50 values, retold here.

Chain of JAK2 (O60674 whole entry): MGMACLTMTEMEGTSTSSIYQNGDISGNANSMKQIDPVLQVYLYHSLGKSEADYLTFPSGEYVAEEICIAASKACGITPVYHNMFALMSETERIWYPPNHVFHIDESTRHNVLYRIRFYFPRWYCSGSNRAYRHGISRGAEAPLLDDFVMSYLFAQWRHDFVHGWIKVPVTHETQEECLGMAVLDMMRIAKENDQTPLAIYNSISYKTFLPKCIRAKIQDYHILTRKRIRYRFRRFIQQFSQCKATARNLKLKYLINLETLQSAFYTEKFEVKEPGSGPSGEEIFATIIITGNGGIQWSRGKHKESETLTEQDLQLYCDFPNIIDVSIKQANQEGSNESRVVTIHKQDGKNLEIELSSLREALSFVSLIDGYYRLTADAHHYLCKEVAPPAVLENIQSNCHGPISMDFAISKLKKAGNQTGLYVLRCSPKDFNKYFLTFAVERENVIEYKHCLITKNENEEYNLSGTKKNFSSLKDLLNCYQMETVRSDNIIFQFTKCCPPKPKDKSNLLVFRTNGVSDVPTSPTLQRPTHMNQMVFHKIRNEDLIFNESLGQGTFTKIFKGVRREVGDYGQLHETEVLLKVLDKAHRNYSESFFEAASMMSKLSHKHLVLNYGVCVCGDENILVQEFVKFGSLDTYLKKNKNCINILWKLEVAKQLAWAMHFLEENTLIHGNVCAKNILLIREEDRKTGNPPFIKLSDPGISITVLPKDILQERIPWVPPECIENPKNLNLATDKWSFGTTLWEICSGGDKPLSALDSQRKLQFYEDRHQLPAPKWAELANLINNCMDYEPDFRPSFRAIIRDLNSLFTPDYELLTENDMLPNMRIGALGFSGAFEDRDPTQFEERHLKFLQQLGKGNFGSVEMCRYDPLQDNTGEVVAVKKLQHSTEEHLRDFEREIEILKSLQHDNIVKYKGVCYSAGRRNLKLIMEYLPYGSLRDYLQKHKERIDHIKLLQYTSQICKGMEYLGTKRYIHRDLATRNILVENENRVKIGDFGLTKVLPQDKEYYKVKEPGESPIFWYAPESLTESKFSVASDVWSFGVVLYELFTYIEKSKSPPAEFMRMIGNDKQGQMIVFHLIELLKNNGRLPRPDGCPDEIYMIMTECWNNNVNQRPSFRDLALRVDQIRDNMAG

The first assay has as its target JAK2 (Homo sapiens (Human), UniProt O60674). The assay is described as follows: JAK2 Z-Lyte biochemical assay.
Conditions: not given
As for the experimental part:
Example 3. JAK2 Z-Lyte Biochemical Assay of the Compounds of the Present Disclosure
The JAK2 Z-Lyte biochemical assay was performed according to manufacturer's instructions (Life Technologies).
As to `CCN1CCN(Cc2ccc(Nc3nc4ccc(Oc5ccnc(NC(=O)C6CCN(C)CC6)c5)cc4n3C)cc2C(F)(F)F)CC1` [Compound I-19, N-(4-(2-(4-((4-ethylpiperazin-1-yl)methyl)-3-(trifluoromethyl)phenylamino)-3-methyl-3H-benzo[d]imidazol-5-yloxy)pyridin-2-yl)-1-methylpiperidine-4-carboxamide], the half-maximal inhibitory concentration (IC50) (usually the point on the concentration scale where inhibition reaches its midpoint) was found to be 8.03 µM.
Still for that read-out and setting: to `CCN1CCN(Cc2ccc(Nc3nc4ccc(Oc5ccnc(NC(=O)CCN(C)C)c5)cc4n3C)cc2C(F)(F)F)CC1` [Compound I-21, 3-(dimethylamino)-N-(4-(2-(4-((4-ethylpiperazin-1-yl)methyl)-3-(trifluoromethyl)phenylamino)-3-methyl-3H-benzo[d]imidazol-5-yloxy)pyridin-2-yl)propanamide] belongs 4.93 µM.
On the same count and under the same terms, the result for `CCN1CCN(Cc2ccc(Nc3nc4ccc(Oc5ccc(O)nc5)cc4n3C)cc2C(F)(F)F)CC1` [Compound I-22, 5-((2-((4-((4-ethylpiperazin-1-yl)methyl)-3-(trifluoromethyl)phenyl)amino)-1-methyl-1H-benzo[d]imidazol-6-yl)oxy)pyridin-2(1H)-one] reads greater than 10 µM.
The same measure, in the same setting: to `CCN1CCN(Cc2ccc(Nc3nc4ccc(Oc5ccnc(NC(C)=O)c5)c(C)c4[nH]3)cc2C(F)(F)F)CC1` [Compound I-5, N-(4-(2-(4-((4-ethylpiperazin-1-yl)methyl)-3-(trifluoromethyl)phenylamino)-4-methyl-1H-benzo[d]imidazol-5-yloxy)pyridin-2-yl)acetamide] belongs 1.05 µM; to `Cn1c(Nc2ccc(F)cc2F)nc2ccc(Oc3ccc(O)nc3)cc21` [Compound I-23], greater than 10 µM; to `CC(=O)Nc1cc(Oc2ccc3nc(Nc4ccc(F)cc4F)nn3c2)ccn1` [Compound I-11, N-(4-(2-(2,4-difluorophenylamino)-[1,2,4]triazolo[1,5-a]pyridin-6-yloxy)pyridin-2-yl)acetamide], greater than 10 µM.
`CCN1CCN(Cc2ccc(Nc3nc4ccc(Oc5ccnc(NC(=O)C6CCOCC6)c5)cc4n3C)cc2C(F)(F)F)CC1` [Compound I-18, N-(4-(2-(4-((4-ethylpiperazin-1-yl)methyl)-3-(trifluoromethyl)phenylamino)-3-methyl-3H-benzo[d]imidazol-5-yloxy)pyridin-2-yl)-tetrahydro-2H-pyran-4-carboxamide] had an IC50 of 6 µM.
On the same count and under the same terms, the result for `Cn1c(Nc2ccc(F)cc2F)nc2ccc(Oc3ccnc(C(=O)O)c3)nc21` [Compound I-14, 4-((2-((2,4-difluorophenyl)amino)-3-methyl-3H-imidazo[4,5-b]pyridin-5-yl)oxy)picolinic acid] reads greater than 10 µM.
The same measure, in the same setting: to `CC(=O)Nc1cc(Oc2ccc3c(c2)nc(Nc2ccc(F)cc2F)n3C)ccn1` [Compound I-8, N-(4-(2-(2,4-difluorophenylamino)-1-methyl-1H-benzo[d]imidazol-5-yloxy)pyridin-2-yl)acetamide] belongs 0.0925 µM; to `COC(=O)c1cc(Oc2ccc3nc(Nc4ccc(F)cc4F)n(C)c3n2)ccn1` [Compound I-13, Methyl 4-((2-((2,4-difluorophenyl)amino)-3-methyl-3H-imidazo[4,5-b]pyridin-5-yl)oxy) picolinate], greater than 10 µM; to `CC(=O)Nc1cc(Oc2ccc3nc(Nc4ccc(F)cc4F)[nH]c3c2C)ccn1` [Compound I-4, N-(4-(2-(2,4-difluorophenylamino)-4-methyl-1H-benzo[d]imidazol-5-yloxy)pyridin-2-yl)acetamide], 0.449 µM.
On the same count and under the same terms, the result for `CCN1CCN(Cc2cc(Nc3nc4cc(Oc5ccnc(NC(C)=O)c5)ccc4n3C)cc(C(F)(F)F)c2)CC1` [Compound I-9, N-(4-(2-(3-((4-ethylpiperazin-1-yl)methyl)-5-(trifluoromethyl)phenylamino)-1-methyl-1H-benzo[d]imidazol-5-yloxy)pyridin-2-yl)acetamide] reads 2.14 µM.
`CCN1CCN(Cc2ccc(Nc3nc4ccc(Oc5ccnc(NC(C)=O)c5)nc4n3C)cc2C(F)(F)F)CC1` [Compound I-15, N-(4-((2-((4-((4-ethylpiperazin-1-yl)methyl)-3-(trifluoromethyl)phenyl)amino)-3-methyl-3H-imidazo[4,5-b]pyridin-5-yl)oxy)pyridin-2-yl)acetamide]: the IC50 amounted to 1.34 µM.
`CC(=O)Nc1cc(Oc2ccc3nc(Nc4ccc(F)cc4F)n(C)c3c2)ccn1` [Compound I-1, N-(4-(2-(2,4-difluorophenylamino)-1-methyl-1H-benzo[d]imidazol-6-yloxy)pyridin-2-yl)acetamide] showed an IC50 of 3.08 µM.
Same read-out and setting: the result for `CC(=O)Nc1cc(Oc2ncc3[nH]c(Nc4ccc(F)cc4F)nc3n2)ccn1` [Compound I-10, N-(4-(8-(2,4-difluorophenylamino)-7H-purin-2-yloxy)pyridin-2-yl)acetamide] reads greater than 10 µM.
Compound `CCN1CCN(Cc2ccc(Nc3nc4nc(Oc5ccnc(NC(C)=O)c5)ncc4[nH]3)cc2C(F)(F)F)CC1` [Compound I-16, N-(4-((8-((4-((4-ethylpiperazin-1-yl)methyl)-3-(trifluoromethyl)phenyl)amino)-7H-purin-2-yl)oxy)pyridin-2-yl)acetamide] came in with a 50% inhibitory concentration (IC50) greater than 10 µM.
Still for that read-out and setting: the result for `CC(=O)Nc1cc(Oc2ccc3nc(Nc4ccc(F)cc4F)n(C)c3n2)ccn1` [Compound I-12, N-(4-(2-(2,4-difluorophenylamino)-3-methyl-3H-imidazo[4,5-b]pyridin-5-yloxy)pyridin-2-yl)acetamide] reads greater than 10 µM; that for `CCN1CCN(Cc2cc(Nc3nc4ccc(Oc5ccnc(NC(C)=O)c5)cc4n3C)cc(C(F)(F)F)c2)CC1` [Compound I-3, N-(4-(2-(3-((4-ethylpiperazin-1-yl)methyl)-5-(trifluoromethyl)phenylamino)-1-methyl-1H-benzo[d]imidazol-6-yloxy)pyridin-2-yl)acetamide], 0.957 µM; that for `CCN1CCN(Cc2ccc(Nc3nc4ccc(Oc5ccnc(N)c5)cc4n3C)cc2C(F)(F)F)CC1` [Compound I-20, 6-(2-aminopyridin-4-yloxy)-N-(4-((4-ethylpiperazin-1-yl)methyl)-3-(trifluoromethyl)phenyl)-1-methyl-1H-benzo[d]imidazol-2-amine], 1.95 µM.
Regarding `CCN1CCN(Cc2ccc(Nc3nc4cc(Oc5ccnc(NC(C)=O)c5)ccc4n3C)cc2C(F)(F)F)CC1` [Compound I-7, N-(4-(2-(4-((4-ethylpiperazin-1-yl)methyl)-3-(trifluoromethyl)phenylamino)-1-methyl-1H-benzo[d]imidazol-5-yloxy)pyridin-2-yl)acetamide], it took 8.53 µM to reach half-maximal inhibition (IC50).

A further assay deals with cell lines or patient-derived xenografts from patients with CRLF2-rearranged B-ALL.
Assay: not given
As to conditions: cited from earlier work.
On to `N#CC[C@H](C1CCCC1)n1cc(-c2ncnc3[nH]ccc23)cn1` [Ruxolitinib], for which the IC50 is greater than 20 µM.
